Results published in article PMC10518257 (Nature Cancer, 2023).
Values joined by “and” are separate entries in the source; they are usually repeats but may differ in a detail not shown here. Equal values may be shown once. Read-outs that look alike come from different tables or passages of the source.

How the values were obtained:
Ba/F3 cells = test: Growth inhibition assay in Ba/F3 cells (CellTiter-Glo, 72 h); format: cell-based
HBECp53-EV cells = test: Growth inhibition (alamarBlue, 96 h); format: cell-based, human; details: for raw viability signal (Source Data Fig. 3b-c): HBEC-EV, replicate sets
MMNK1 cholangiocytes = test: Growth inhibition (alamarBlue, 96 h); format: cell-based, human; details: for raw viability signal (Source Data Fig. 3b-c): MMNK, replicates
[1] = Animal weight of tumor-bearing mice

Question: For `COc1cc2c(Nc3ccc(Br)cc3F)ncnc2cc1OCC1CCN(C)CC1` [Vandetanib], which GI50 (Ba/F3 cells; Ba/F3 (parental), replicate Sets 1-3, read-out: GI50) is on record?
Answer: 7.33 µM and 9.12 µM

Question: What about the GI50 (Ba/F3 cells; Mus musculus, BaF3, 72 h, Ba/F3, CellTiter-Glo, 72 h, read-out: GI50 value (Mean ± SD)) of the same compound?
Answer: 7.49 µM

Question: What about the GI50 (Ba/F3 cells; Mus musculus, BaF3, Ba/F3 (parental), replicate Sets 1-3, read-out: GI50) of the same compound?
Answer: 6.02 µM

Question: What about the “raw viability signal (Source Data Fig. 3b-c)” value (shortened to “raw viability signal”) (HBECp53-EV cells; 0.01 nM) of the same compound?
Answer: 25097.6 and 25887.6 and 17676.4

Question: And the “raw viability signal” value (HBECp53-EV cells; 0.1 nM)?
Answer: 26759 and 26118.3 and 17425.7

Question: What about the “raw viability signal” value (HBECp53-EV cells; 1 nM) of the same compound?
Answer: 23471.2 and 28489.7 and 18981.5

Question: What about the “raw viability signal” value (HBECp53-EV cells; 10 nM) of the same compound?
Answer: 23607.2 and 26549.6 and 18321.2

Question: What about the “raw viability signal” value (HBECp53-EV cells; 100 nM) of the same compound?
Answer: 25750 and 25003

Question: And the “raw viability signal” value (HBECp53-EV cells; 1000 nM)?
Answer: 22139.5 and 31238.9 and 18759.8

Question: And the “raw viability signal” value (HBECp53-EV cells; 10000 nM)?
Answer: 1428.02 and 2282.52 and 1103.83

Question: What about the IC50 (HBECp53-EV cells; Homo sapiens, read-out: IC50 for Inhibition of Growth (95% CI), HBECp53-EV, alamarBlue, 96 h) of the same compound?
Answer: 3.58 µM

Question: And the IC50 (MMNK1 cholangiocytes; Homo sapiens, read-out: IC50 for Inhibition of Growth (95% CI), MMNK1, alamarBlue, 96 h)?
Answer: 1.91 µM

Question: And the “raw viability signal” value (MMNK1 cholangiocytes; 0.01 nM)?
Answer: 15966.6 and 15969.8

Question: And the “raw viability signal” value (MMNK1 cholangiocytes; 0.1 nM)?
Answer: 15836.6

Question: What about the “raw viability signal” value (MMNK1 cholangiocytes; 1 nM) of the same compound?
Answer: 15572.3

Question: And the “raw viability signal” value (MMNK1 cholangiocytes; 10 nM)?
Answer: 14924.4 and 14679.1

Question: And the “raw viability signal” value (MMNK1 cholangiocytes; 100 nM)?
Answer: 14912.5 and 14740.1

Question: And the “raw viability signal” value (MMNK1 cholangiocytes; 1000 nM)?
Answer: 12405.8

Question: What about the “raw viability signal” value (MMNK1 cholangiocytes; 10000 nM) of the same compound?
Answer: 1136.86 and 1108.37

Question: What about the Animal Weight ([1]; ECLC5B xenograft, P = 0.01, animals killed early) of the same compound?
Answer: significant weight loss

Question: What about the “Animal Weight” value ([1]; ECLC5 Xenografts, 100 mg/kg QD, treatment day 7, individual animals, 100 mg/kg) of the same compound?
Answer: 26 g and 24 g and 22 g (3×)

Question: What about the “Animal Weight” value ([1]; ECLC5 Xenografts, 100 mg/kg QD, treatment day 11, individual animals, 100 mg/kg) of the same compound?
Answer: 25 g and 23 g and 22 g (3×)

Question: What about the “Animal Weight” value ([1]; ECLC5 Xenografts, 100 mg/kg QD, treatment day 14, individual animals, 100 mg/kg) of the same compound?
Answer: 24 g and 22 g (2×) and 21 g (2×)

Question: And the “Animal Weight” value ([1]; ECLC5 Xenografts, 100 mg/kg QD, treatment day 19, individual animals, 100 mg/kg)?
Answer: 22 g (2×) and 21 g (3×)

Question: And the “Animal Weight” value ([1]; ECLC5 Xenografts, 100 mg/kg QD, treatment day 22, individual animals)?
Answer: 20 g

Question: What about the “Animal Weight” value ([1]; ECLC5 Xenografts, 100 mg/kg QD, treatment day 25, individual animals) of the same compound?
Answer: 20 g

Question: And the Animal Weight ([1]; LUAD-0057AS1 PDX, 50 mg per kg QD, P = 0.0015)?
Answer: significant reduction in animal weight

Question: And the “Animal Weight” value ([1]; LUAD-0057AS1 PDX, 50 mg/kg QD, treatment day 0, individual animals, 50 mg/kg)?
Answer: 24 g (3×) and 23 g (3×) and 25 g (2×)

Question: What about the “Animal Weight” value ([1]; LUAD-0057AS1 PDX, 50 mg/kg QD, treatment day 3, individual animals, 50 mg/kg) of the same compound?
Answer: 21 g (6×) and 22 g and 23 g

Question: And the “Animal Weight” value ([1]; LUAD-0057AS1 PDX, 50 mg/kg QD, treatment day 7, individual animals, 50 mg/kg)?
Answer: 21 g (3×) and 23 g and 22 g (3×) and 20 g

Question: And the “Animal Weight” value ([1]; LUAD-0057AS1 PDX, 50 mg/kg QD, treatment day 10, individual animals, 50 mg/kg)?
Answer: 20 g (2×) and 22 g (2×) and 21 g (4×)

Question: What about the “Animal Weight” value ([1]; LUAD-0057AS1 PDX, 50 mg/kg QD, treatment day 14, individual animals, 50 mg/kg) of the same compound?
Answer: 20 g (2×) and 21 g (6×)

Question: And the “Animal Weight” value ([1]; LUAD-0057AS1 PDX, 50 mg/kg QD, treatment day 19, individual animals, 50 mg/kg)?
Answer: 20 g (4×) and 19 g (2×) and 21 g (2×)

Question: What about the “Animal Weight” value ([1]; LUAD-0057AS1 PDX, 50 mg/kg QD, treatment day 23, individual animals, 50 mg/kg) of the same compound?
Answer: 19 g and 20 g

Question: And the Animal Weight ([1]; NIH-3T3-CCDC6::RET xenografts, 100 mg/kg QD, day 0, 100 mg/kg)?
Answer: 22 g and 26 g and 24 g and 21 g and 20 g

Question: And the Animal Weight ([1]; NIH-3T3-CCDC6::RET xenografts, 100 mg/kg QD, day 2, 100 mg/kg)?
Answer: 22 g and 23 g and 21 g and 19 g

Question: And the Animal Weight ([1]; NIH-3T3-CCDC6::RET xenografts, 100 mg/kg QD, day 5, 100 mg/kg)?
Answer: 22 g and 26 g and 24 g and 20 g

Question: What about the Animal Weight ([1]; NIH-3T3-CCDC6::RET xenografts, 100 mg/kg QD, day 8, 100 mg/kg) of the same compound?
Answer: 22 g and 25 g and 23 g and 21 g and 19 g
